Data set [1] addresses hERG potassium ion channel (Homo sapiens (Human), UniProt Q12809). As to the kind of experiment: hERG potassium channel current, automatic patch-clamp QPatch, CHO-hERG cells. The following applies: highest test concentration 40 μM. Type of data set: cell-based. As for the experimental part: The effect of the compound of formula (I) on the hERG potassium channel current was investigated by adopting CHO (Chinese Hamster ovary) cell stably expressing the hERG potassium ion channel and using the fully automatic patch-clamp QPatch technology.
CHO-hERG cells were cultured in a 175 cm^2 culture flask. After the cell density increased to 60-80%, the culture medium was removed, the cells were washed once with 7 mL PBS, and then 3 mL Detachin was added for digestion.
After the digestion was complete, 7 mL of culture medium was added for neutralization, and then the mixture was centrifuged. The supernatant was removed, and then 5 mL of culture medium was added for resuspension to ensure that the cell density was 2-5×10^6/mL. […]
The single-cell high-impedance sealing and the whole-cell mode formation process were all automatically completed by the Qpatch instrument. […] The data were recorded for 2 minutes, then extracellular fluid was given, and then the data were recorded for 5 minutes. […] The experimental data were analyzed by XLFit software.

Data set [2] has as its system Mouse colon cancer MC38 cells. Description: In vivo anti-tumor effect, MC38 mouse colon cancer transplantation tumor model. The following applies: 15, 25 and 50 mg/kg PO BID x 20 days. The method, then:
• Species: mouse • Strain: C57BL6 mouse • Week-age and weight: 6-7 weeks of age, 16-20 grams of body weight • Sex: Female • Supplier: Shanghai SLAC Laboratory Animal Co., Ltd.
Mouse colon cancer MC38 cells (OBiO Technology (Shanghai) Corp., Ltd.) were cultured in monolayer in vitro, and the culture conditions were DMEM culture medium (Gibco; article number: 12100) with 10% fetal bovine serum at 37° C. in 5% CO2 in an incubator. Conventional digestion treatment with 0.25% pancreatin-EDTA for passage was carried out. When the cells were in the exponential growth phase and the density was 80%-90%, the cells were harvested, counted, and inoculated. […]
Tumor diameter was measured twice a week with vernier calipers. […]
The tumor inhibition effect of the compound was evaluated by TGI (%) or relative tumor proliferation rate T/C (%). […] The relative tumor volume (RTV) was calculated according to the results of the tumor measurement. The calculation equation was RTV=Vt/V0, where V0 was the average tumor volume measured at the grouping and administration (i.e. D0), and Vt was the average tumor volume at the time of a certain measurement. […]
Statistical analysis was performed using SPSS software based on the tumor volume and the tumor weight at the end of the experiment. The comparison between two groups was analyzed by t-test, and the comparison between three or more groups was analyzed by one-way ANOVA.

A short description of data set [3]: In vivo pharmacokinetics test in mice. The following applies: mouse, plasma, po; female Balb/c mice, intragastric, 3 mg/kg; read-out: Bioavailability F. The method, then:
Female Balb/c mice were used as test animals. The compound of formula (I) was administrated intravenously and intragastrically to mice, then the drug concentrations in the plasma at different time points were determined by the LC/MS/MS method. The in vivo pharmacokinetic behavior of the compound of formula (I) in mice was studied, and its pharmacokinetic characteristics were evaluated.
Sixteen healthy adult female Balb/c mice were divided into four groups according to the principle of similar body weight, with four mice in each group. The animals were purchased from Shanghai Lingchang BioTech Co., Ltd. of Shanghai SLAC Laboratory Animal Co., Ltd., and the animal production license number was SCXK (Shanghai) 2013-0018.
An appropriate amount of the sample was taken, 5% final volume of DMSO was added, and then 95% final volume of 20% HP-β-CD was added. The mixture was ultrasonically stirred to obtain a 0.5 mg/mL clear solution. After filtration, it was used for the intravenous administration. […]
The LC/MS/MS method was used to measure the content of the compound to be tested in the plasma after the intravenous and intragastric administration to the mice. The linear range of the method was 2.00-6000 nmol/L; the plasma samples were analyzed after the protein precipitation by acetonitrile treatment.

Where only a bound is given, the exact number is not on record here.

The values below come from US12344620B2, “BRD4 inhibitor compound in solid form and preparation method therefor and use thereof” (CSPC ZHONGQI PHARMACEUTICAL TECHNOLOGY (SHIJIAZHUANG) CO., …, priority 2019, dated 2025).

Sequence of hERG potassium ion channel (Q12809 whole entry): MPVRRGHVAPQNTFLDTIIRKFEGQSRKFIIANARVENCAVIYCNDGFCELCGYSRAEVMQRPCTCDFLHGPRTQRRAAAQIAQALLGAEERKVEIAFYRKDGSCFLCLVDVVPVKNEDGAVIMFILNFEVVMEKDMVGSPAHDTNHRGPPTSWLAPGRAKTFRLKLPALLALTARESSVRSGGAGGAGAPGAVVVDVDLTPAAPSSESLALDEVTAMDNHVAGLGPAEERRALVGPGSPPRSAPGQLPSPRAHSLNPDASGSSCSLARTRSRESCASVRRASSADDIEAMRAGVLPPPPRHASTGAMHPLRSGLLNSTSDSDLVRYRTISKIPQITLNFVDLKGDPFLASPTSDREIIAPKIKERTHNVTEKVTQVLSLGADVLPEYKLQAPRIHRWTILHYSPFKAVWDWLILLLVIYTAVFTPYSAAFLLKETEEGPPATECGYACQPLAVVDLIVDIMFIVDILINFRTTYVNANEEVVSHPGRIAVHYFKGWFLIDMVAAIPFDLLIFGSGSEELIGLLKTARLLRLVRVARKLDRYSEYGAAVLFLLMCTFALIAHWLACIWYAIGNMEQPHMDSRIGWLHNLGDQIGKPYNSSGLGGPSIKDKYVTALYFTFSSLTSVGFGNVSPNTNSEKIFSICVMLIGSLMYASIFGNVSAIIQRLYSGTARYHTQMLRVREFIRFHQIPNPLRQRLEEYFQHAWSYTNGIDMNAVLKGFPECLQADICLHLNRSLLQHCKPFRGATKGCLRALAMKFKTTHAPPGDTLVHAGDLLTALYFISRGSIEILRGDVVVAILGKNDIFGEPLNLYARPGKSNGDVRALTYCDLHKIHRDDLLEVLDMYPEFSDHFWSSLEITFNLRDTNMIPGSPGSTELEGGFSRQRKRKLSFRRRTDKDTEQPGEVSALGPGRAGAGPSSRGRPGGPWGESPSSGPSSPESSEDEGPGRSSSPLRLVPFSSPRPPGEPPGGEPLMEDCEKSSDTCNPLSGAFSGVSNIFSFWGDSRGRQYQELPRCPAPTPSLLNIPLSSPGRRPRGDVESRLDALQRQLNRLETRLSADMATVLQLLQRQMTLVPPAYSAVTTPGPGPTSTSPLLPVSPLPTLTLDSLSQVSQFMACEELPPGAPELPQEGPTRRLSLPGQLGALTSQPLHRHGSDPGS

Compound `Cc1sc2c(c1C)C(c1ccc(Cl)cc1)=N[C@@H](CC(=O)Nc1ccc3c(c1)COC3=O)c1nnc(C)n1-2` [Compound of formula (I)] had a 50% inhibitory concentration (IC50) in data set [1] of more than 40 µM. Also, the tolerance entry in data set [2] was “good tolerance”. In addition, the bioavailability in data set [3] was determined as 37.5%.
